Source: the supplement of paper PMC4121296
± gives the standard deviation of the averaged measurements.

Legend:
Details in all cases: exposure: 5-72 hpf
[1] = system: Danio rerio embryo (fli1:egfp); assay: heart rate at 72 hpf (beats per minute); higher = faster heart rate
Description: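 fli1:egfp zebrafish embryos exposed 5-72 hpf to chemical (0.05-50 µM, 0.1% DMSO) in 384-well plates; heart rate at 72 hpf quantified from stream acquisitions by semi-automated MetaXpress journal (peak counting); only embryos in concentrations passing survival/body-length criteria analyzed.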

[2] = system: Danio rerio embryo (fli1:egfp); assay: body length at 72 hpf (µm); higher = longer body (less growth inhibition)
Description: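 Transgenic fli1:egfp zebrafish embryos (one per well, 384-well plate) exposed statically from 5 to 72 hpf at 28 °C to chemical (0.05-50 µM, 0.1% DMSO); at 72 hpf anesthetized and imaged on ImageXpress; body length of live, hatched, correctly oriented embryos measured by automated MetaXpress journal. Dead/unhatched/misoriented embryos have no value.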

[3] = system: Danio rerio embryo (fli1:egfp); assay: pericardial area at 72 hpf (image area units (not stated)); higher = larger pericardial area (edema)
Description: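 fli1:egfp zebrafish embryos exposed 5-72 hpf to chemical (0.05-50 µM, 0.1% DMSO); pericardial area at 72 hpf measured by semi-automated MetaXpress journal (increase indicates edema).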

[4] = system: Danio rerio embryo (fli1:egfp); assay: arterial (dorsal aorta) circulation score at 72 hpf (normalized DA-Max (arbitrary units)); higher = more circulation
Description: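 fli1:egfp zebrafish embryos exposed 5-72 hpf to chemical (0.05-50 µM, 0.1% DMSO); arterial circulation at 72 hpf quantified from stream acquisitions of the dorsal aorta by FFT-based analysis (DA-Max, normalized dorsal aorta signal); only concentrations passing survival/body-length criteria analyzed.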

[5] = system: Danio rerio embryo (fli1:egfp); assay: intersegmental vessel area normalized to body length at 72 hpf (ISV area / body length (normalized units)); higher = more vessel area
Description: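 fli1:egfp zebrafish embryos exposed 5-72 hpf to chemical (0.05-50 µM, 0.1% DMSO); intersegmental vessel (ISV) eGFP area quantified by MetaXpress journal at 72 hpf and normalized to body length.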

C[C@@]1(c2ccc(Oc3ccccc3)cc2)OC(=O)N(Nc2ccccc2)C1=O (racemic) [Famoxadone]
Details	arterial, [4]	body length at 72 hpf, [2]	heart rate at 72 hpf, [1]	intersegmental vessel area normalized, [5]	pericardial area at 72 hpf, [3]
0.05 µM	15.7 ± 7	2980 ± 83	172 ± 15	72.5 ± 23	13400 ± 4100
0.098 µM	14.7 ± 7.2	2990 ± 84	180 ± 26	84.9 ± 20	13700 ± 3400
0.195 µM	14.5 ± 4.1	2970 ± 93	188 ± 27	77.8 ± 18	13500 ± 3100
0.39 µM	12.7 ± 3.2	2970 ± 100	177 ± 20	75.4 ± 23	12100 ± 3800
0.78 µM	14.9 ± 5.7	2940 ± 66	160 ± 36	80 ± 22	15500 ± 5200

C=C(C)[C@H]1Cc2c(ccc3c2O[C@@H]2COc4cc(OC)c(OC)cc4[C@@H]2C3=O)O1 [Rotenone]
0.05 µM
Details	arterial	body length at 72 hpf	heart rate at 72 hpf	intersegmental vessel area normalized	pericardial area at 72 hpf
[1]	–	–	141 ± 28	–	–
[2]	–	3020 ± 150	–	–	–
[3]	–	–	–	–	18800 ± 9900
[4]	8.64 ± 4.7	–	–	–	–
[5]	–	–	–	85.6 ± 18	–

CCOC(=O)COc1cc(-c2nn(C)c(OC(F)F)c2Cl)c(F)cc1Cl [Pyraflufen-ethyl]
Details	arterial, [4]	body length at 72 hpf, [2]	heart rate at 72 hpf, [1]	intersegmental vessel area normalized, [5]	pericardial area at 72 hpf, [3]
0.05 µM	10.9 ± 5.3	3030 ± 120	171 ± 14	83.6 ± 15	15700 ± 5300
0.098 µM	8.57 ± 3.6	3020 ± 110	174 ± 18	92.3 ± 16	15400 ± 2800
0.195 µM	10.5 ± 4.4	3020 ± 100	174 ± 27	84.6 ± 16	15300 ± 3600
0.39 µM	9.67 ± 4.3	3040 ± 120	167 ± 14	86.7 ± 15	17100 ± 4000
0.78 µM	10.2 ± 5.1	2950 ± 300	169 ± 12	81.6 ± 19	16800 ± 4600
1.56 µM	7.3 ± 3.3	2980 ± 140	169 ± 19	85.2 ± 15	20600 ± 6600
3.125 µM	4.92 ± 2.7	2960 ± 77	160 ± 13	86.2 ± 17	20000 ± 5900
6.25 µM	3.84 ± 1.6	2890 ± 140	163 ± 26	86 ± 18	25300 ± 11000
25 µM	3.2 ± 0.82	2790 ± 120	148 ± 31	96.9 ± 12	25400 ± 7700

CC(C)Oc1cc(-n2nc(C(C)(C)C)oc2=O)c(Cl)cc1Cl [Oxadiazon]
Details	arterial, [4]	body length at 72 hpf, [2]	heart rate at 72 hpf, [1]	intersegmental vessel area normalized, [5]	pericardial area at 72 hpf, [3]
0.05 µM	14.6 ± 4.2	3090 ± 97	179 ± 12	85.1 ± 22	14800 ± 3700
0.098 µM	14 ± 5.9	3060 ± 110	184 ± 26	88.1 ± 20	13700 ± 4000
0.195 µM	13.8 ± 4.9	3090 ± 84	190 ± 13	90.3 ± 20	15400 ± 4000
0.39 µM	14.5 ± 6	3060 ± 87	186 ± 18	82.3 ± 20	15400 ± 3500
0.78 µM	13.1 ± 3.4	3040 ± 95	182 ± 11	82.4 ± 20	16500 ± 5400
1.56 µM	15.4 ± 4.7	2950 ± 220	183 ± 11	83.4 ± 25	14900 ± 4900
3.125 µM	13.2 ± 4.7	3060 ± 83	188 ± 13	85.6 ± 24	15800 ± 3600
6.25 µM	14.1 ± 6	3120 ± 77	190 ± 10	90.4 ± 26	16000 ± 2900
12.5 µM	11.5 ± 3.2	3000 ± 120	181 ± 12	94.5 ± 18	17300 ± 5400
25 µM	9.56 ± 4.9	2960 ± 110	155 ± 19	90.2 ± 17	16800 ± 5000

CC1(C)C(C=C(Cl)Cl)C1C(=O)OC(C#N)c1ccc(F)c(Oc2ccccc2)c1 (stereo unspecified) [Cyfluthrin]
Details	arterial, [4]	body length at 72 hpf, [2]	heart rate at 72 hpf, [1]	intersegmental vessel area normalized, [5]	pericardial area at 72 hpf, [3]
0.05 µM	14.9 ± 4.7	3010 ± 110	185 ± 14	80.1 ± 26	16100 ± 5200
0.098 µM	14.7 ± 4.3	3040 ± 91	187 ± 13	71.9 ± 21	14000 ± 3700
0.195 µM	16.3 ± 7.1	3030 ± 130	188 ± 15	80.3 ± 29	12900 ± 3400
0.39 µM	12.4 ± 4.2	3070 ± 120	193 ± 17	83.3 ± 28	13300 ± 4200
0.78 µM	9.66 ± 3.1	3020 ± 130	202 ± 17	71.9 ± 25	14900 ± 3200
1.56 µM	13 ± 5.4	2900 ± 150	198 ± 18	78.4 ± 25	16800 ± 3500
3.125 µM	14.7 ± 5.8	2790 ± 130	190 ± 14	92.3 ± 18	16900 ± 5300
6.25 µM	–	2620 ± 90	–	–	–

N#Cc1c(Cl)c(Cl)c(Cl)c(C#N)c1Cl [Chlorothalonil]
Details	arterial, [4]	body length at 72 hpf, [2]	heart rate at 72 hpf, [1]	intersegmental vessel area normalized, [5]	pericardial area at 72 hpf, [3]
0.05 µM	11.6 ± 4.9	2960 ± 87	138 ± 22	70.8 ± 19	17600 ± 6300
0.098 µM	10.8 ± 4.5	2990 ± 100	140 ± 26	78.4 ± 17	24100 ± 13000
0.195 µM	10.3 ± 5.3	2940 ± 150	154 ± 29	75.7 ± 17	23900 ± 12000
0.39 µM	12.3 ± 6.5	2880 ± 100	153 ± 26	80.7 ± 14	22000 ± 7200

CN1CSC(=S)N(C)C1 [Dazomet]
0.05 µM
Details	arterial	body length at 72 hpf	heart rate at 72 hpf	intersegmental vessel area normalized	pericardial area at 72 hpf
[1]	–	–	168 ± 32	–	–
[2]	–	2860 ± 98	–	–	–
[3]	–	–	–	–	15600 ± 5300
[4]	14.4 ± 6.5	–	–	–	–
[5]	–	–	–	72.7 ± 20	–

C#CCN1C(=O)COc2cc(F)c(N3C(=O)C4=C(CCCC4)C3=O)cc21 [Flumioxazin]
Details	arterial, [4]	body length at 72 hpf, [2]	heart rate at 72 hpf, [1]	intersegmental vessel area normalized, [5]	pericardial area at 72 hpf, [3]
0.05 µM	6.76 ± 3.9	3020 ± 68	175 ± 39	73.7 ± 29	17000 ± 3900
0.098 µM	5.49 ± 2.2	2970 ± 110	169 ± 22	74.8 ± 19	17800 ± 5000
0.195 µM	5.79 ± 2.1	3020 ± 130	160 ± 32	82.8 ± 12	18200 ± 5500
0.39 µM	4.85 ± 2.9	2920 ± 120	155 ± 26	68.9 ± 16	19000 ± 3700
0.78 µM	5.18 ± 3.1	3030 ± 110	156 ± 27	68.8 ± 19	23000 ± 9000
1.56 µM	4.72 ± 2.1	2960 ± 270	164 ± 22	74.8 ± 19	18100 ± 3600
3.125 µM	4.39 ± 1.6	3000 ± 180	182 ± 36	74 ± 24	18700 ± 4800
6.25 µM	4.22 ± 2.3	3000 ± 120	169 ± 28	69.6 ± 20	19200 ± 4300
12.5 µM	4.91 ± 2.6	2990 ± 120	182 ± 40	75.9 ± 17	19300 ± 11000
25 µM	4.04 ± 1.9	2920 ± 140	166 ± 15	86.4 ± 9.3	17700 ± 4200
50 µM	6.16 ± 2.8	2920 ± 120	166 ± 30	79 ± 14	21100 ± 10000
